The values below come from patent publication US10538555B2, “Macrocyclic inhibitors of the PD-1/PD-L1 and CD80(B7-1)/PD-L1 protein/protein interactions” (BRISTOL-MYERS SQUIBB COMPANY, priority 2014, dated 2020).

This assay has as its target T1, Human PD-L1/PD-1 (Homo sapiens, UniProt Q9NZQ7).
T1 construct: TVMV protease cleavage site (C); made in house; host or cells: HEK293T cells
Description: HTRF Human PD-L1/PD-1 binding assay (PD-1-Ig/PD-L1-His). The conditions noted are these: PD-L1-His 10 nM, PD-1-Ig 20 nM; class symbol; read-out: HTRF Human PD-L1/PD-1 Binding Assay IC50 Range. In outline:
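Soluble HEK293T-expressed proteins: hPD-L1-His 10 nM, hPD-1-Ig 20 nM final. Cpd + PD-L1 15 min, + PD-1 15 min, + Eu anti-Ig 1 nM/APC anti-His 20 nM 30 min. Buffer dPBS, 0.1% BSA, 0.05% Tween-20. TR-FRET 665/620.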
(In TR-FRET formats the signal depends on donor and acceptor labels being close together.)

Where a SMILES comes first, the peptide text is derived from it. Bridges are numbered along the chain shown (N, C = ends). [ ]: non-standard residue; d: D form. Hyp = O=C(O)[C@@H]1C[C@@H](O)CN1; NMeNle = CCCC[C@H](NC)C(=O)O; NMeA = CN[C@@H](C)C(=O)O; Orn = NCCC[C@H](N)C(=O)O; Dab = NCC[C@H](N)C(=O)O; Dap = NC[C@H](N)C(=O)O

T1 sequence (Q9NZQ7 with tags, fused parts or gaps): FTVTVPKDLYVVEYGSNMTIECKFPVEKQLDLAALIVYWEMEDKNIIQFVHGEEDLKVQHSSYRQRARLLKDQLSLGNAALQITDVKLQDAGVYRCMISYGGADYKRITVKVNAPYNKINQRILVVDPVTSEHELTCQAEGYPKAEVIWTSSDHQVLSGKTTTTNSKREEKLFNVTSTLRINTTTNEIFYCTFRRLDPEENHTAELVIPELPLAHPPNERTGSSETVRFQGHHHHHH

In the case of `CCCC[C@H]1C(=O)N(C)[C@@H](CCCC)C(=O)N[C@@H](CCC(=O)O)C(=O)N[C@H](C(=O)NCC(N)=O)CSCC(=O)N[C@@H](Cc2ccc(OC)cc2)C(=O)N(C)[C@@H](C)C(=O)N[C@@H](CC(N)=O)C(=O)N2CCC[C@H]2C(=O)N[C@@H](CN)C(=O)N[C@@H](CCCCN)C(=O)N2C[C@H](O)C[C@H]2C(=O)N[C@@H](Cc2c[nH]c3ccccc23)C(=O)N[C@@H](CCN)C(=O)N[C@@H](Cc2c[nH]c3ccccc23)C(=O)N1C` [Example 7121] ({CH2CO}-Y(Me)[NMeA]NP[Dap]K[Hyp]W[Dab]W[NMeNle][NMeNle]ECG-NH2; thioether N-14), the IC50 lay in the range of 1 to 9.9 nM.

In the case of `CCCC[C@H]1C(=O)N(C)[C@@H](CCCC)C(=O)N[C@@H](CCC(=O)O)C(=O)N[C@H](C(=O)NCC(N)=O)CSCC(=O)N[C@@H](Cc2ccc(OC)cc2)C(=O)N(C)[C@@H](C)C(=O)N[C@@H](CC(=O)O)C(=O)N2CCC[C@H]2C(=O)N[C@@H](CN)C(=O)N[C@@H](CCCCN)C(=O)N2C[C@H](O)C[C@H]2C(=O)N[C@@H](Cc2c[nH]c3ccccc23)C(=O)N[C@@H](CCN)C(=O)N[C@@H](Cc2c[nH]c3ccccc23)C(=O)N1C` [Example 7122] ({CH2CO}-Y(Me)[NMeA]DP[Dap]K[Hyp]W[Dab]W[NMeNle][NMeNle]ECG-NH2; thioether N-14), the IC50 lay within 1 to 9.9 nM.

Turning to `CCCC[C@H]1C(=O)N(C)[C@@H](CCCC)C(=O)N[C@@H](CCC(=O)O)C(=O)N[C@H](C(=O)NCC(N)=O)CSCC(=O)N[C@@H](Cc2ccc(OC)cc2)C(=O)N(C)[C@@H](C)C(=O)N[C@@H](CCN)C(=O)N2CCC[C@H]2C(=O)N[C@@H](CN)C(=O)N[C@@H](CCCCN)C(=O)N2C[C@H](O)C[C@H]2C(=O)N[C@@H](Cc2c[nH]c3ccccc23)C(=O)N[C@@H](CCN)C(=O)N[C@@H](Cc2c[nH]c3ccccc23)C(=O)N1C` [Example 7123] ({CH2CO}-Y(Me)[NMeA][Dab]P[Dap]K[Hyp]W[Dab]W[NMeNle][NMeNle]ECG-NH2; thioether N-14), the IC50 was 10 to 99.9 nM.

`CCCC[C@H]1C(=O)N(C)[C@@H](CCCC)C(=O)N[C@@H](CCC(=O)O)C(=O)N[C@H](C(=O)NCC(N)=O)CSCC(=O)N[C@@H](Cc2ccc(OC)cc2)C(=O)N(C)[C@@H](C)C(=O)N[C@@H](CC(N)=O)C(=O)N2CCC[C@H]2C(=O)N[C@@H](Cc2cnc[nH]2)C(=O)N[C@@H](CCC(=O)O)C(=O)N2C[C@H](O)C[C@H]2C(=O)N[C@@H](Cc2c[nH]c3ccccc23)C(=O)N[C@@H](CC(=O)O)C(=O)N[C@@H](Cc2c[nH]c3ccccc23)C(=O)N1C` [Example 7124] ({CH2CO}-Y(Me)[NMeA]NPHE[Hyp]WDW[NMeNle][NMeNle]ECG-NH2; thioether N-14): the IC50 lay in the range of 10 to 99.9 nM.

Turning to `CCCC[C@H]1C(=O)N(C)[C@@H](CCCC)C(=O)N[C@@H](CCC(=O)O)C(=O)N[C@H](C(=O)NCC(N)=O)CSCC(=O)N[C@@H](Cc2ccc(OC)cc2)C(=O)N(C)[C@@H](C)C(=O)N[C@@H](CC(=O)O)C(=O)N2CCC[C@H]2C(=O)N[C@@H](Cc2cnc[nH]2)C(=O)N[C@@H](CCC(=O)O)C(=O)N2C[C@H](O)C[C@H]2C(=O)N[C@@H](Cc2c[nH]c3ccccc23)C(=O)N[C@@H](CC(=O)O)C(=O)N[C@@H](Cc2c[nH]c3ccccc23)C(=O)N1C` [Example 7125] ({CH2CO}-Y(Me)[NMeA]DPHE[Hyp]WDW[NMeNle][NMeNle]ECG-NH2; thioether N-14), the IC50 was in the range of 10 to 99.9 nM.

Consider `CCCC[C@H]1C(=O)N(C)[C@@H](CCCC)C(=O)N[C@@H](CCC(=O)O)C(=O)N[C@H](C(=O)NCC(N)=O)CSCC(=O)N[C@@H](Cc2ccc(OC)cc2)C(=O)N(C)[C@@H](C)C(=O)N[C@@H](CCN)C(=O)N2CCC[C@H]2C(=O)N[C@@H](Cc2cnc[nH]2)C(=O)N[C@@H](CCCCN)C(=O)N2C[C@H](O)C[C@H]2C(=O)N[C@@H](Cc2c[nH]c3ccccc23)C(=O)N[C@@H](CC(=O)O)C(=O)N[C@@H](Cc2c[nH]c3ccccc23)C(=O)N1C` [Example 7126] ({CH2CO}-Y(Me)[NMeA][Dab]PHK[Hyp]WDW[NMeNle][NMeNle]ECG-NH2; thioether N-14), for which the IC50 is 1000 to 10000 nM.

Consider `CCCC[C@H]1C(=O)N(C)[C@@H](CCCC)C(=O)N[C@@H](CCC(=O)O)C(=O)N[C@H](C(=O)NCC(N)=O)CSCC(=O)N[C@@H](Cc2ccc(OC)cc2)C(=O)N(C)[C@@H](C)C(=O)N[C@@H](CC(N)=O)C(=O)N2CCC[C@H]2C(=O)N[C@@H](CN)C(=O)N[C@@H](CCCCN)C(=O)N2C[C@H](O)C[C@H]2C(=O)N[C@@H](Cc2c[nH]c3ccccc23)C(=O)N[C@@H](CC(=O)O)C(=O)N[C@@H](Cc2c[nH]c3ccccc23)C(=O)N1C` [Example 7127] ({CH2CO}-Y(Me)[NMeA]NP[Dap]K[Hyp]WDW[NMeNle][NMeNle]ECG-NH2; thioether N-14), for which the IC50 is 10 to 99.9 nM.

Turning to `CCCC[C@H]1C(=O)N(C)[C@@H](CCCC)C(=O)N[C@@H](CCCN)C(=O)N[C@H](C(=O)NCC(N)=O)CSCC(=O)N[C@@H](Cc2ccc(OC)cc2)C(=O)N(C)[C@@H](C)C(=O)N[C@@H](CC(N)=O)C(=O)N2CCC[C@H]2C(=O)N[C@@H](Cc2cnc[nH]2)C(=O)N[C@@H](CCCCN)C(=O)N2C[C@H](O)C[C@H]2C(=O)N[C@@H](Cc2c[nH]c3ccccc23)C(=O)N[C@@H](CC(=O)O)C(=O)N[C@@H](Cc2c[nH]c3ccccc23)C(=O)N1C` [Example 7128] ({CH2CO}-Y(Me)[NMeA]NPHK[Hyp]WDW[NMeNle][NMeNle][Orn]CG-NH2; thioether N-14), the IC50 was 10 to 99.9 nM.

As to `CCCC[C@H]1C(=O)N(C)[C@@H](CCCC)C(=O)N[C@@H](CCCN)C(=O)N[C@H](C(=O)NCC(N)=O)CSCC(=O)N[C@@H](Cc2ccc(OC)cc2)C(=O)N(C)[C@@H](C)C(=O)N[C@@H](CC(=O)O)C(=O)N2CCC[C@H]2C(=O)N[C@@H](CN)C(=O)N[C@@H](CCCCN)C(=O)N2C[C@H](O)C[C@H]2C(=O)N[C@@H](Cc2c[nH]c3ccccc23)C(=O)N[C@@H](CC(=O)O)C(=O)N[C@@H](Cc2c[nH]c3ccccc23)C(=O)N1C` [Example 7129] ({CH2CO}-Y(Me)[NMeA]DP[Dap]K[Hyp]WDW[NMeNle][NMeNle][Orn]CG-NH2; thioether N-14), the IC50 was 1 to 9.9 nM.

`CCCC[C@H]1C(=O)N(C)[C@@H](CCCC)C(=O)N[C@@H](CCC(=O)O)C(=O)N[C@H](C(=O)NCC(N)=O)CSCC(=O)N[C@@H](Cc2ccc(OC)cc2)C(=O)N(C)[C@@H](C)C(=O)N[C@@H](CC(=O)O)C(=O)N2CCC[C@H]2C(=O)N[C@@H](CN)C(=O)N[C@@H](CCCCN)C(=O)N2C[C@H](O)C[C@H]2C(=O)N[C@@H](Cc2c[nH]c3ccccc23)C(=O)N[C@@H](CC(=O)O)C(=O)N[C@@H](Cc2c[nH]c3ccccc23)C(=O)N1C` [Example 7130] ({CH2CO}-Y(Me)[NMeA]DP[Dap]K[Hyp]WDW[NMeNle][NMeNle]ECG-NH2; thioether N-14): the IC50 is 10 to 99.9 nM.

Take `CCCC[C@H]1C(=O)N(C)[C@@H](CCCC)C(=O)N[C@@H](CCC(=O)O)C(=O)N[C@H](C(=O)NCC(N)=O)CSCC(=O)N[C@@H](Cc2ccc(OC)cc2)C(=O)N(C)[C@@H](C)C(=O)N[C@@H](CC(=O)O)C(=O)N2CCC[C@H]2C(=O)N[C@@H](Cc2cnc[nH]2)C(=O)N[C@@H](CCCCN)C(=O)N2C[C@H](O)C[C@H]2C(=O)N[C@@H](Cc2c[nH]c3ccccc23)C(=O)N[C@@H](CC(=O)O)C(=O)N[C@@H](Cc2c[nH]c3ccccc23)C(=O)N1C` [Example 7131] ({CH2CO}-Y(Me)[NMeA]DPHK[Hyp]WDW[NMeNle][NMeNle]ECG-NH2; thioether N-14): the IC50 was in the range of 1 to 9.9 nM.
